pIC50: −log10 of the molar value. Active and inactive are the calls of the source. The rule behind the calls is not given here.
Tests used:
[1] = Antiproliferative activity against human PC3 cells assessed as reduction in proliferation after 24 hrs by [3H]-thymidine incorporation assay; type: functional, cell-based; conditions: PC-3
[2] = system: LNCaP C4-2B; test: Antiproliferative activity against human C4-2B cells assessed as reduction in proliferation at 1 to 100 uM after 24 hrs by MTT assay; type: functional, cell-based
[3] = system: PC-3; test: Antiproliferative activity against human PC3 cells assessed as reduction in proliferation at 1 to 10 uM after 24 hrs by MTT assay; type: functional, cell-based
[4] = molecular target: Sphingosine 1-phosphate receptor 1 (Homo sapiens) (UniProt P21453); test: Agonist activity at S1P receptor in human PC3 cells assessed as increase in proliferation at 100 nM after 24 hrs by [3H]-thymidine incorporation assay; type: cell-based; conditions: PC-3
Chain of Sphingosine 1-phosphate receptor 1 (Homo sapiens) (P21453 whole entry): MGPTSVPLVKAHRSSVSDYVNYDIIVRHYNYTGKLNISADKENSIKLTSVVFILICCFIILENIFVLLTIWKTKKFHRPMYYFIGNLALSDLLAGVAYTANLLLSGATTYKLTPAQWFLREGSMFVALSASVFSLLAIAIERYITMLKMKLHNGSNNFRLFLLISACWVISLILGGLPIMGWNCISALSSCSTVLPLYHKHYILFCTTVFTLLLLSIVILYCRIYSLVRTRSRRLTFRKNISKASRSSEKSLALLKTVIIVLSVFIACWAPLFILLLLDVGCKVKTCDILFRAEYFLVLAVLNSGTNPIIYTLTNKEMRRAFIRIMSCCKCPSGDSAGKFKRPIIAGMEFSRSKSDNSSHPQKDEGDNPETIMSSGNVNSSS

[5] = molecular target: Sphingosine 1-phosphate receptor 1 (Homo sapiens) (UniProt P21453); test: Agonist activity at S1P receptor in human C4-2B cells assessed as increase in proliferation at 100 nM after 24 hrs by [3H]-thymidine incorporation assay; type: cell-based
[6] = Antiproliferative activity against human C4-2B cells assessed as reduction in proliferation after 24 hrs by [3H]-thymidine incorporation assay; type: functional, cell-based; conditions: LNCaP C4-2B

| Activity [4] | Activity [5] | Compound | pIC50 [1] | inhibition [2] | inhibition [3] | pIC50 [6] |
| --- | --- | --- | --- | --- | --- | --- |
| inactive | inactive | CCCCCCCCc1ccc(CCC(N)CC(F)(F)P(=O)(O)O)cc1 (stereo not given) | 4.70 | Active | Active | 5.52 |
| Active | Active | CCCCCCCCc1ccc(CCC(N)(CO)COP(=O)(O)O)cc1 (stereo not given) | – | – | – | – |

| Compound | Activity [4] | Activity [5] | pIC50 [1] | inhibition [2] | inhibition [3] | pIC50 [6] |
| --- | --- | --- | --- | --- | --- | --- |
| CCCCCCCCCCCCC/C=C/[C@@H](O)[C@@H](N)COP(=O)(O)O | Active | Active | – | – | – | – |

Source: ChEMBL document CHEMBL3351815, “Synthesis of fluorinated agonist of sphingosine-1-phosphate receptor 1” (Bioorg Med Chem, 2014)
